Test results taken from PMC11087525 (Scientific Reports, 2024).
Converted amounts (≈) assume the structure as drawn. “And” between values parts separate entries of the source, which are not always exact repeats. Identical values can stand only once. Like-named read-outs stand apart in the source and are kept apart here.

How the values were obtained:
human neurons [1] = system: human neurons
pericytes [2] = assay: In-vitro drug uptake by human brain pericytes
[3] = system: Human brain primary astrocytes; assay: In-vitro drug uptake by human brain primary astrocytes
pericytes [4] = conditions: human, 24 h, 1000 ng/mL
in vivo [5] = conditions: male, Sprague-Dawley, rat, Median (IQR), rats
[6] = cited from earlier work
[7] = cited from earlier work; remark: listed apart in the source
[8] = cited from earlier work; remark: listed apart in the source
[9] = system: SARS-CoV-2 USA_WAI/2020 isolate; conditions: cited from earlier work; for plasma EC90Adjusted concentration: adjusted for plasma protein binding
[10] = system: SARS-CoV-2 USA_WAI/2020 isolate
Excerpt: Therefore, the goal for the CSF was set to achieve the same exposure conditions as for plasma.

[11] = cited from earlier work; remark: listed apart in the source
[12] = set-up: method as in earlier work; conditions: cited from earlier work
in vivo [13] = conditions: male, Sprague-Dawley, rat; for Tmax: Average Tmax
[14] = rats
human neurons [15] = assay: In-vitro drug uptake by human neurons; conditions: for uptake of NMR by neurons (mean ± SD): 24-h incubation
[16] = RTV alone, 1000 ng/mL, 24-h incubation
[17] = in the presence or absence of RTV
[18] = rats, oral 30 mg/kg NMR + 10 mg/kg RTV twice daily, 5 days
[19] = rats, oral NMR/RTV twice daily, 5 days

## CC(C)c1nc(CN(C)C(=O)N[C@H](C(=O)N[C@@H](Cc2ccccc2)C[C@H](O)[C@H](Cc2ccccc2)NC(=O)OCc2cncs2)C(C)C)cs1 [RTV, ritonavir]
Human neurons [1]
  neuronal entry of RTV: moderate
Pericytes [2]; [16]
  RTV uptake in pericytes (mean ± SD): 202.6 ng/mL
[3]; [16]
  RTV uptake in astrocytes (mean ± SD): 419.7 ng/mL
Pericytes [4]
  uptake of RTV by pericytes (uptake/administered): 20.2%

## CC(C)(C)[C@H](NC(=O)C(F)(F)F)C(=O)N1C[C@H]2[C@@H]([C@H]1C(=O)N[C@H](C#N)C[C@@H]1CCNC1=O)C2(C)C [NMR, nirmatrelvir]
In vivo [5]; AR Brain
  Kp: 0.15
In vivo [5]; AR Kidney
  Kp: 1.71
In vivo [5]; AR Liver
  Kp: 2.71
In vivo [5]; AR Lung
  Kp: 0.89
In vivo [5]; AR PBMC
  Kp: 0.998
[6]; 10 mg/kg oral, rat
  NMR half-life in other oral rat PK studies: 4 h
[6]
  F literature values estimated in rats for NMR: 34–50%
  Tmax in other rodent models, mean: 1.5 h
Pericytes [2]; [17]
  uptake of NMR by pericytes: < 2%
Pericytes [2]; pericytes
  difference in NMR uptake, NMR alone or with RTV: No significant differences
[7]
  passive apparent permeability (Papp): 17.6 nm/s
All rats
  Cmax_0-5 days Plasma, Median (IQR): 2240 (1860–4030) ng/mL
All rats with CSF, 3xEC90 271.5 ng/mL unadjusted for protein binding
  %CSF Concentrations ≥ 3xEC90Un_adjusted, Median (IQR): 16 (0 -20.5) % and 16%
Excluding rat 7, calculated to compare to clinical data
  Cmax_0-5 days Plasma, Geometric mean (Geometric SD factor): 2.48 µg/mL
rats
  CSF Cmax, median: 0.41 µg/mL
Rats with CSF sampled
  % Penetration by Cmax CSF/Plasma, Median (IQR): 18.11%
  Cmax_0-5 days CSF, Median (IQR): 410 (200–880) ng/mL
[18]
  CL (NMR clearance), median from final model: 0.23 L/h
  Ka, median from final model: 0.51 h⁻¹
[19]
  K23 (rate constant to CSF from central compartment), median: 0.05 h⁻¹
  Vc (volume central compartment), median: 1.05 L
  Vcsf (volume cerebrospinal fluid compartment), median: 3.46 L
[8]; EPIC-HR, FDA review
  participants with NMR trough concentrations ≥ 3 × EC90: 95%
[8]
  NMR Ka reported by others: 0.55 h⁻¹
  half-life for NMR in the presence of RTV in humans: 6.05 h
[8]; healthy volunteers
  healthy human geometric mean AUC0-12 h: 23.01 µg·h/mL
  healthy human geometric mean Cmax: 2.21 µg/mL
[9]; bronchial epithelial cells infected with USA_WAI/2020 isolate
  plasma EC90Adjusted concentration: 0.292 mg/L
[9]
  plasma EC90Adjusted concentration: 0.585 µM
[9]; unadjusted for protein binding
  EC90Un_adjusted: 0.0905 mg/L (≈ 0.181 µM)
  EC90Un_adjusted for CSF: 0.0905 mg/L
[10]
  3xEC90 PD value for CSF: 271.5 ng/mL
  3xEC90 PD value for plasma and tissue: 876 ng/mL
  3xEC90 plasma protein adjusted in plasma: 0.876 mg/L
  3xEC90 unadjusted in CSF: 0.2715 mg/L
[3]; astrocytes
  difference in NMR uptake, NMR alone or with RTV: No significant differences
[3]; [17]
  uptake of NMR by astrocytes: < 2%
[11]
  lipophilicity coefficient (LogP): 1.68
[12]
  protein bound: 69%
In vivo [13]
  Cmax: 2.48 µg/mL
In vivo [13]; % Penetration by AUC CSF/Plasma, Median (IQR), rats with CSF sampled
  Kp: 0.152
In vivo [13]; % Penetration by Cmax CSF/Plasma, Median (IQR), rats with CSF sampled
  Kp: 0.181
In vivo [13]; po, 30 mg/kg
  k el: 6.67e-05 s⁻¹
In vivo [13]; po, 30 mg/kg, AUC0-endoftreatment CSF, Median (IQR), rats with CSF sampled
  AUC: 17.6 µg·h/mL
In vivo [13]; po, 30 mg/kg, AUC0-endoftreatment Plasma, Median (IQR), all rats
  AUC: 114 µg·h/mL
In vivo [13]; po, 30 mg/kg, AUC0-endoftreatment Plasma, Median (IQR), excluding rat 7
  AUC: 128 µg·h/mL
In vivo [13]; po, 30 mg/kg, AUCdaily_average CSF, Median (IQR), rats with CSF sampled
  AUC: 3.52 µg·h/mL
In vivo [13]; po, 30 mg/kg, AUCdaily_average Plasma, Geometric mean (Geometric SD factor), excluding rat 7, calculated to compare to clinical data
  AUC: 20.2 µg·h/mL
In vivo [13]; po, 30 mg/kg, AUCdaily_average Plasma, Median (IQR), all rats
  AUC: 22.8 µg·h/mL
In vivo [13]; po, 30 mg/kg, AUCdaily_average Plasma, Median (IQR), excluding rat 7
  AUC: 25.6 µg·h/mL
In vivo [13]; po, 30 mg/kg, Mean (SD), all rats, calculated to compare to literature values
  Tmax: 1.84 h
In vivo [13]; po, 30 mg/kg, Median (IQR), all rats
  Tmax: 1.68 h
In vivo [13]; po, 30 mg/kg, Half-life, Median (IQR), all rats, NMR in the presence of RTV
  half-life: 2.55 h
In vivo [13]; po, NMR CSF concentrations as % of those in plasma, ratio of Cmax or AUC, oral NMR/RTV twice daily for five days
  Kp: 0.15 to 0.18
[14]
  Brain NMR concentration, Median (IQR): 23.83 (10.94-46.85) ng/g
  Heart NMR concentration, Median (IQR): 61.72 (24.44-111.5) ng/g
  Kidney NMR concentration, Median (IQR): 97.84 (43.28-297.3) ng/g
  Liver NMR concentration, Median (IQR): 110 (35.65-419.5) ng/g
  Lung NMR concentration, Median (IQR): 67.86 (25.01-111.3) ng/g
  PBMC NMR concentration, Median (IQR): 61.44 (31.7-345.2) ng/mL
[14]; adjusted or unadjusted for protein binding
  brain NMR concentrations compared to 3xEC90: all < 3xEC90 regardless of adjustment for protein binding
Human neurons [15]; NMR alone, 2200 ng/mL
  uptake of NMR by neurons (mean ± SD): 34.7 ng/mL
Human neurons [15]; in the presence of RTV (1000 ng/mL), NMR 2200 ng/mL
  uptake of NMR by neurons (mean ± SD): 122.8 ± 7.8 ng/mL
Human neurons [15]; neurons in the presence of RTV, 2200 ng/mL administered
  maximum NMR uptake (uptake/administered): 5.5%
